# B1: Human PM20D1: purified, recombinant human PM20D1-flag from transiently transfected 293A cells (protein, UniProt Q6GTS8 26-502, looked up)
# N-fatty-acyl-amino acid …: MGPRSGEHQRASRIPSQFSKEERVAMKEALKGAIQIPTVTFSSEKSNTTALAEFGKYIHKVFPTVVSTSFIQHEVVEEYSHLFTIQGSDPSLQPYLLMAHFDVVPAPEEGWEVPPFSGLERDGIIYGRGTLDDKNSVMALLQALELLLIRKYIPRRSFFISLGHDEESSGTGAQRISALLQSRGVQLAFIVDEGGFILDDFIPNFKKPIALIAVSEKGSMNLMLQVNMTSGHSSAPPKETSIGILAAAVSRLEQTPMPIIFGSGTVVTVLQQLANEFPFPVNIILSNPWLFEPLISRFMERNPLTNAIIRTTTALTIFKAGVKFNVIPPVAQATVNFRIHPGQTVQEVLELTKNIVADNRVQFHVLSAFDPLPVSPSDDKALGYQLLRQTVQSVFPEVNITAPVTSIGNTDSRFFTNLTTGIYRFYPIYIQPEDFKRIHGVNEKISVQAYETQVKFIFELIQNADTDQEPVSHLHKL
# modifications: FLAG tag
# notes: purified, recombinant human PM20D1-flag from transiently transfected 293A cells
# What was measured:
# [1] = system: differentiated primary iWAT cells; assay: Cellular oxygen consumption rate (Seahorse XF24), differentiated primary iWAT adipocytes; type: cell-based, mouse; conditions: 50 μM, in presence of oligomycin (1 μM)
# Experimental: (§1) C2C12, U2O5, and 293A cells were cultured in DMEM with 10% FBS and pen/strep. Primary inguinal (iWAT) and brown (BAT) adipocytes were obtained as follows. The stromal-vascular fraction of inguinal (iWAT) pad from 4-12 week old male mice was dissected, minced, and digested for 45 min. at 37° C. in PBS containing 10 mM CaCl2, 2.4 U/ml dispase II (Roche), and 1.5 U/ml collagenase D (Roche). The stromal-vascular fraction of brown fat (BAT) pads from newborn (P1-P14) pups was dissected, minced, and digested for 45 min at 37° C. in PBS containing 1.3 mM CaCl2, 120 mM NaCl, 5 mM KCl, 5 mM glucose, 100 mM HEPES, 4% BSA, and 1.5 mg/ml collagenase B (Roche). Digested tissue was diluted with adipocyte culture media (DMEM/F-12, GlutaMAX™ supplement, Life Technologies, with 10% FBS and pen/strep) and centrifuged (600×g for 10 min.). The pellet was resuspended in 10 ml adipocyte culture media, strained through a 40 μm filter, and plated. Differentiation was induced by application of an adipogenic cocktail containing 5 μg/ml insulin (Sigma), 5 μM dexamethasone (Sigma), 250 μM isobutylmethylxanthine (Sigma), and 1 μM rosiglitazone (Cayman) for 2 days. Two days after induction, cells were maintained in adipocyte culture media containing 5 μg/ml insulin and 1 μM rosiglitazone.
# (§2) Cellular oxygen consumption rates were determined using an XF24 Extracellular Flux Analyzer (Seahorse Biosciences). Oligomycin was purchased from EMD Millipore, and FCCP and rotenone were purchased from Sigma. C2C12 or U2OS cells were seeded at 30,000 or 50,000 cells/well, respectively in an XF24 cell culture microplate (V7-PS, Seahorse Bioscience) and analyzed the following day. Primary iWAT or BAT adipocytes were seeded at 15,000 cells/well, differentiation was induced the following day as described, and the cells were analyzed on day 5. On the day of analysis, the cells were washed once with Seahorse respiration buffer (8.3 g/1 DMEM, 1.8 g/l NaCl, 1 mM pyruvate, 20 mM glucose, pen/strep), placed in 0.5 ml Seahorse respiration buffer, and incubated in a CO2-free incubator for 1 hr. Port injection solutions were prepared as follows (final concentrations in assay in parentheses): 10 μM oligomycin (1 μM final), […] amino acid (50 μM final), 2 μM FCCP (0.2 μM final), and 30 μM rotenone (3 μM final). The Seahorse program was run as follows: basal measurement, 3 cycles; inject port A (oligomycin), 3 cycles; inject port B (compounds), 8 cycles; inject port C (FCCP), 3 cycles; inject port D (rotenone), 3 cycles. Each cycle consisted of mix 4 min, wait 0 min, and measure 2 min. For data expressed as a percentage of oligomycin-treated basal, the respiration at cycle 6 was normalized to 100%, and the maximum respiration at any time point between cycles 7 and 15 inclusive was used.
# [2] = system: primary BAT adipocytes from UCP1-WT mice; assay: Cellular oxygen consumption rate, primary BAT adipocytes from UCP1-WT mice; type: cell-based, mouse; conditions: UCP1-WT cells, 50 μM
# Experimental: (§3) C2C12, U2O5, and 293A cells were cultured in DMEM with 10% FBS and pen/strep. Primary inguinal (iWAT) and brown (BAT) adipocytes were obtained as follows. The stromal-vascular fraction of inguinal (iWAT) pad from 4-12 week old male mice was dissected, minced, and digested for 45 min. at 37° C. in PBS containing 10 mM CaCl2, 2.4 U/ml dispase II (Roche), and 1.5 U/ml collagenase D (Roche). The stromal-vascular fraction of brown fat (BAT) pads from newborn (P1-P14) pups was dissected, minced, and digested for 45 min at 37° C. in PBS containing 1.3 mM CaCl2, 120 mM NaCl, 5 mM KCl, 5 mM glucose, 100 mM HEPES, 4% BSA, and 1.5 mg/ml collagenase B (Roche). […]
# (§4) Cellular oxygen consumption rates were determined using an XF24 Extracellular Flux Analyzer (Seahorse Biosciences). […] C2C12 or U2OS cells were seeded at 30,000 or 50,000 cells/well, respectively in an XF24 cell culture microplate (V7-PS, Seahorse Bioscience) and analyzed the following day. Primary iWAT or BAT adipocytes were seeded at 15,000 cells/well, differentiation was induced the following day as described, and the cells were analyzed on day 5. […] For data expressed as a percentage of oligomycin-treated basal, the respiration at cycle 6 was normalized to 100%, and the maximum respiration at any time point between cycles 7 and 15 inclusive was used.
# [3] = system: primary BAT adipocytes from UCP1-KO mice; assay: Cellular oxygen consumption rate, primary BAT adipocytes from UCP1-KO mice; type: cell-based, mouse; conditions: UCP1-KO cells, 50 μM
# Experimental: as §3, §4
# [4] = system: primary inguinal fat cells, primary BAT cells, C2C12 cells, and U2OS cells; assay: Uncoupled respiration cellular assays (variety of cell types); type: cell-based; conditions: N-acyl amino acids at 10-100 uM
# C2C12 cells = assay: Cellular oxygen consumption rate (uncoupled respiration), C2C12 cells; type: cell-based, mouse; conditions: 50 μM, after oligomycin 1 μM
# Experimental: as §1, §2
# proteins in C2C12 cells = assay: UV crosslinking with photo-probe and identification of N-acyl amino acid protein targets (TAMRA in-gel fluorescence, LC-MS/MS); type: binding, mouse; conditions: photo-probe 50 μM, 20 min, UV irradiation 10 min
# Experimental: Confluent 6-cm plates of C2C12 cells were washed twice with PBS and then treated with photo-probe (20 μM) with or without competitor (C20:4-Phe, 100 μM) in serum free media at 37° C. for 20 min. The media was aspirated. Cells were then placed on ice and UV-irradiated (10 min, UV Stratalinker 2400). Control samples were left on ice under ambient light.
# Following UV irradiation, cells were then scraped, centrifuged (5 min, 1,400×g), washed once with cold PBS, and centrifuged again (5 min, 1,400×g). The cell pellets were resuspended in 0.3 ml PBS and sonicated. Click chemistry was performed as follows: To 50 μl cell lysate at 1 mg/ml was added 3 μl TBTA (stock solution: 1.7 mM in 4:1 v/v DMSO:t-BuOH), 1 ul CuSO4 (stock solution: 50 mM in water), 1 ul TCEP (freshly prepared, stock solution: 50 mM), and 1 ul TAMRA-N3 (stock solution: 1.25 mM in DMSO). Reactions were incubated at room temperature for 1 h, and then quenched with 4× SDS loading buffer (17 ul). In-gel TAMRA fluorescence was visualized on a Typhoon™ FLA 9000 scanner (GE Healthcare Life Sciences).
# human PM20D1 [5] = target: T1, human PM20D1 (Homo sapiens, UniProt Q6GTS8); assay: In vitro N-acyl amino acid synthase activity of human PM20D1; type: biochemical; conditions: purified human PM20D1-flag, oleate 1.5 mM, head group 100 μM
# T1 construct: host or cells: 293A cells, transient transfection; purified from conditioned medium
# T1 sequence (Q6GTS8 26-502): B1 N-fatty-acyl-amino acid …
# Experimental: (§5) The concentrated media was centrifuged to remove debris (600×g, 10 min, 4° C.) and the supernatant containing PM20D1-flag was decanted into a new tube. PM20D1-Flag was immunoaffinity purified overnight at 4° C. from the concentrated media using magnetic Flag-M2 beads (Sigma Aldrich). The beads were collected, washed three times in PBS, eluted with 3× Flag peptide ([…] in PBS, Sigma Aldrich), aliquoted, and stored at −80° C. For the purification of human PM20D1-flag, hPM20D1-flag plasmid (Origene) was transiently transfected into 293A cells. After two days, the media was changed, harvested 24 h later, concentrated, and purified exactly as described above.
# (§6) In vitro PM20D1-catalyzed synthesis of N-acyl amino acids was measured by incubating purified PM20D1 protein with oleate (1.5 mM) and phenylalanine (0.1 mM) in PBS (to 100 μl final volume) at 37° C. for 1.5 hrs. In vitro PM20D1-catalyzed N-acyl amino acid hydrolysis was measured by incubating purified PM20D1 protein with the indicated N-acyl amino acid (0.1 mM) in PBS (to 100 μl final volume) at 37° C. for 1.5 hrs. Reactions were terminated by placing the vials at −80° C. and the products generated in vitro were analyzed by mass spectroscopy (MS).
# (§7) Briefly, frozen serum (30 μl) for polar metabolomic analyses were extracted in 160 μl of 1:1 acetonitrile/methanol with inclusion of internal standard D3, ^15N-serine (1 nmol). […]
# human PM20D1 [6] = target: T1, human PM20D1; assay: In vitro N-acyl amino acid hydrolase activity of human PM20D1; type: biochemical; conditions: purified human PM20D1-flag, substrate 100 μM
# Experimental: as §5, §6, §7
molecule,measurement,setting,value
"CCCCC/C=C\C/C=C\C/C=C\C/C=C\CCCC(=O)N[C@@H](Cc1ccccc1)C(=O)O [C20:4-Phe, N-arachidonoyl phenylalanine]",maximal OCR versus DMSO at the same time point,[1],214%
same,maximal OCR versus oligomycin-treated basal respiration,[1],243%
same,maximal OCR versus the oligomycin-treated basal respiration,[2],221%
same,maximal OCR versus the oligomycin-treated basal respiration,[3],214%
same,uncoupled respiration in cells,[4],increased uncoupled respiration
"C#CCCCCCCCCCCCCCCCC(=O)N[C@@H](CC1(C)N=N1)C(=O)O [photo-probe, (S)-3-(3-methyl-3H-diazirin-3-yl)-2-(octadec-17-ynamido)propanoic acid]",uncoupling activity (uncoupled respiration),C2C12 cells,competent inducer of uncoupled respiration
same,crosslinking assessed by in-gel TAMRA fluorescence,proteins in C2C12 cells,"robust, UV-dependent crosslinking"
B1,N-acyl amino acid synthase activity,human PM20D1 [5],possessed N-acyl amino acid synthase and hydrolase activities
same,N-acyl amino acid hydrolase activity,human PM20D1 [6],possessed N-acyl amino acid synthase and hydrolase activities

# — patent US12194080B2, “Methods for identification, assessment, prevention, and treatment of metabolic disorders using PM20D1 and N-lipidated amino acids” (Dana-Farber Cancer Institute, Inc., priority 2015, dated 2025)
